Results published in US20250223331A1, “GLP-1/GIP DUAL-TARGETED POLYPEPTIDE AND FUSION PROTEIN AND APPLICATIONS THEREOF” (SUNSHINE LAKE PHARMA CO., LTD., priority 2021, published 2025).
Marks after values point to notes of the source that are not given here.

Experiments:
Type in all cases: in vivo
[1] = system: normal C57BL/6 mice; test: glucose tolerance in normal C57BL/6 mice (Example 8); conditions: 3 nmol/kg s.c. single dose, 72 h after dose
Protocol: Experimental methods: Normal C57BL/6 mice were randomly divided into 6 groups (Vehicle group, Dulaglutide group, HEC-G113 group, HEC-G122 group, HEC-G126 group, HEC-G127 group) according to blood glucose and body weight, with 8 mice in each group. For the groups of Dulaglutide (Dulaglutide purchased from Eli Lilly, lot number was D256504), HEC-G113, HEC-G122, HEC-G126 and HEC-G127, the corresponding drug was injected subcutaneously into the mice at a dose of 3 nmol/kg, and for the control group, the corresponding vehicle was injected subcutaneously.
After 60 h of single administration, the mice were fasted for 12 h and drank water freely. Blood was collected from the tail vein to measure the basal blood glucose value of each group, then 2 g/kg of glucose solution was injected intraperitoneally, and blood glucose was measured at 15, 30, 60, 90 and 0 min after glucose administration. According to the blood glucose values measured at different time points, the blood glucose concentration-time curve was plotted, and the AUC0˜90min of each dose group was calculated, and the experimental results are shown in Table 7 and FIGS. 3-4

[2] = system: normal C57BL/6 mice; test: glucose tolerance in normal C57BL/6 mice (Example 7); conditions: 3 nmol/kg s.c. single dose, 72 h after dose
Protocol: Experimental methods: Normal C57BL/6 mice were randomly divided into 6 groups (Vehicle group, Dulaglutide group, HEC-G123 group, HEC-G128 group, HEC-G131 group, HEC-G132 group) according to blood glucose and body weight, with 8 mice in each group. For the groups of Dulaglutide, HEC-G123, HEC-G128, HEC-G131 and HEC-G132, the corresponding drug was injected subcutaneously into the mice at a dose of 3 nmol/kg, and for the control group, the corresponding vehicle was injected subcutaneously.
After 60 h of single administration, the mice were fasted for 12 h and drank water freely. Blood was collected from the tail vein to measure the basal blood glucose value of each group, then 2 g/kg of glucose solution was injected intraperitoneally, and blood glucose was measured at 15, 30, 60, and 0 min after glucose administration. According to the blood glucose values measured at different time points, the blood glucose concentration-time curve was plotted, and the AUC0˜90min of each dose group was calculated, and the experimental results are shown in Table 6 and FIGS. 1-2.

[3] = system: normal C57BL/6 mice; test: as above; conditions: 3 nmol/kg s.c. single dose, 72 h after dose, 2 g/kg glucose i.p.
[4] = blood glucose concentration-time curve

Dulaglutide [reference compound]
Blood glucose value 0 min ([1]; 2 g/kg glucose i.p., 0 min): 4.3 ± 0.4 mM | Blood glucose value 15 min ([1]; 2 g/kg glucose i.p., 15 min): 15.3 ± 3.1 mM | Blood glucose value 30 min ([1]; 2 g/kg glucose i.p., 30 min): 15.1 ± 2.7 mM | Blood glucose value 60 min ([1]; 2 g/kg glucose i.p., 60 min): 9.1 ± 1.3 mM | Blood glucose value 90 min ([1]; 2 g/kg glucose i.p., 90 min): 6.8 ± 0.9 mM | AUC0-90 min [1, 4]: 976.2 ± 135.6 ^a | Blood glucose value 0 min ([2]; 2 g/kg glucose i.p., 0 min): 4.4 ± 0.8 mM | Blood glucose value 15 min ([2]; 2 g/kg glucose i.p., 15 min): 15.7 ± 2.2 mM | Blood glucose value 30 min ([2]; 2 g/kg glucose i.p., 30 min): 12.7 ± 2.4 mM | Blood glucose value 60 min ([2]; 2 g/kg glucose i.p., 60 min): 8.1 ± 1.0 mM | AUC0-90 min [2, 4]: 899.0 ± 105.4 ^a | Blood glucose value 90 min [3]: 6.8 ± 0.6 mM
